The IC50 is the midpoint of a concentration-inhibition curve. Broadly, the CC50 is the concentration at which the toxic effect on the cells reaches its halfway point. What is called AC50 is the concentration giving half of the maximal activity seen. The term EC50 denotes the concentration needed to bring the measured effect to its halfway point.

Active and inactive are the calls of the source. A value given as a limit tells only on which side of the number the result lay.

One assay concerns the target Aspartyl aminopeptidase (Plasmodium falciparum 3D7, UniProt Q8I2J3). Put plainly: Counterscreen for inhibitors of M1 and M17 aminopeptidases: QFRET-based biochemical high throughput dose response assay for inhibitors of the Plasmodium falciparum M18 Aspartyl Aminopeptidase (PFM18AAP). [Related PubChem assays: 1619 (Screening assay (M17LAP inhibitors).), 1445 (Screening assay (M1AAP inhibitors).)]. (Counterscreens check selectivity or assay interference.)

The target in the next assay is T1, Aminopeptidase N (Plasmodium falciparum FcB1/Columbia, UniProt O96935).
T1 sequence (O96935 whole entry): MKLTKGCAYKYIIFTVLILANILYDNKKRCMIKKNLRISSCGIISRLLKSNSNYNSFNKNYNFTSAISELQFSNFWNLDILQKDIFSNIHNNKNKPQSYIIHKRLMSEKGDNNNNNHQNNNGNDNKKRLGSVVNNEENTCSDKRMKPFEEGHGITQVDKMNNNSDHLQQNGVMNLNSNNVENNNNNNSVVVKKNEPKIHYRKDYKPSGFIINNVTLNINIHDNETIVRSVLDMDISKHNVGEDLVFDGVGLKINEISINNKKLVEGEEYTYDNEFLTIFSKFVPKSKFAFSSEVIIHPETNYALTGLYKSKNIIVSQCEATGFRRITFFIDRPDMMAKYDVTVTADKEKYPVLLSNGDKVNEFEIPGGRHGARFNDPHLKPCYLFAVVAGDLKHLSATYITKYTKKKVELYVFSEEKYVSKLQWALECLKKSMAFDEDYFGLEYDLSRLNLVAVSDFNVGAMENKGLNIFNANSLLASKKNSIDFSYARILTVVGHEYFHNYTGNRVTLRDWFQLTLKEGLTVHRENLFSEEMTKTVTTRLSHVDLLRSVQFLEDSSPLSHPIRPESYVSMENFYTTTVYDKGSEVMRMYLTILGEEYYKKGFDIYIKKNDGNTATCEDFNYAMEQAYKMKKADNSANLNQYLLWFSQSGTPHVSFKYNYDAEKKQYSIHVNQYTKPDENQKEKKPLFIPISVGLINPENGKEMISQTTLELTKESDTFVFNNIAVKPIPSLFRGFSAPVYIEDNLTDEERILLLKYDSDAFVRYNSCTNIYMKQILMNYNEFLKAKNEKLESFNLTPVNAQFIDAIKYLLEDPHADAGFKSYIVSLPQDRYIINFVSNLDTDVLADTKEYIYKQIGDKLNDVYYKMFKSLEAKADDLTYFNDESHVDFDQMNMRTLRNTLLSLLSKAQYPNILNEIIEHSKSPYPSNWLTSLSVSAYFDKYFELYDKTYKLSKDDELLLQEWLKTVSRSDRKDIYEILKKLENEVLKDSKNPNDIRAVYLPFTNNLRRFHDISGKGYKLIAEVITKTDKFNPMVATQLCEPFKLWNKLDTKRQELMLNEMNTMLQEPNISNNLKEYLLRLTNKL
Put plainly: P. falciparum M1AAP inhibitors, biochemical, fluorogenic H-Leu-NHMec substrate, 1536-well (AID 1445). Details: species or system Plasmodium falciparum 3D7, 3D7.

A further assay has as its target Procathepsin L (Homo sapiens, UniProt P07711). Kind of assay: cathepsin L inhibitors, dose response, counter-screen for M1/M17 aminopeptidase inhibitor project, biochemical, QFRET, 1536-well (AID 2214).
The next assay addresses T2, Leucine aminopeptidase (Plasmodium falciparum 3D7, UniProt Q8IL11).
T2 sequence (Q8IL11 whole entry): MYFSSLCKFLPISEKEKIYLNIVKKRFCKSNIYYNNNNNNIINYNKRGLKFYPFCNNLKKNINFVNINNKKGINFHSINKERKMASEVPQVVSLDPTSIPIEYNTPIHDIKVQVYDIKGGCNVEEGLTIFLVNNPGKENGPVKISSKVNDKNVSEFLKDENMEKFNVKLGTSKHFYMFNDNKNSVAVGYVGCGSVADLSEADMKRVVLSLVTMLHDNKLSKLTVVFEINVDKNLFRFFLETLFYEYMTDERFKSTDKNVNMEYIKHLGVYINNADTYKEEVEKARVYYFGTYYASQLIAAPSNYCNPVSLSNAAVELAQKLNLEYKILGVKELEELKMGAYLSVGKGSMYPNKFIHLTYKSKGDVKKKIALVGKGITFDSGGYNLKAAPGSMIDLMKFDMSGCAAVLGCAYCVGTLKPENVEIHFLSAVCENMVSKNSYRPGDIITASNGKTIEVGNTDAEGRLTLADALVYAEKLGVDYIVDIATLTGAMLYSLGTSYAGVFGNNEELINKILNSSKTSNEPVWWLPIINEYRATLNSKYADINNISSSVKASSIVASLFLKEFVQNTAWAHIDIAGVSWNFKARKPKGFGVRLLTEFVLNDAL
Kind of assay: P. falciparum M17LAP inhibitors, primary screen, biochemical, fluorogenic H-Leu-NHMec substrate, 1536-well (AID 1619). The assay is classed as functional.

The nature of assay [1]: A Cell Based Secondary Assay To Explore Cytotoxicity of Compounds that Sensitize Mycobacterium Tuberculosis to Beta-Lactam Antibiotics. In kind it is functional.
Assay [2] concerns the target Acyl-homoserine lactone acylase PvdQ (Pseudomonas aeruginosa (strain LESB58), UniProt Q9I194). Put plainly: P. aeruginosa PvdQ acylase inhibitors, dose response, biochemical, fluorescence, plate reader and imaging, cherry-picks (AID 493231).
Assay [3] deals with T3, Eukaryotic translation initiation factor 2-alpha kinase 3 (Homo sapiens, UniProt Q9NZJ5).
T3 sequence (Q9NZJ5 whole entry): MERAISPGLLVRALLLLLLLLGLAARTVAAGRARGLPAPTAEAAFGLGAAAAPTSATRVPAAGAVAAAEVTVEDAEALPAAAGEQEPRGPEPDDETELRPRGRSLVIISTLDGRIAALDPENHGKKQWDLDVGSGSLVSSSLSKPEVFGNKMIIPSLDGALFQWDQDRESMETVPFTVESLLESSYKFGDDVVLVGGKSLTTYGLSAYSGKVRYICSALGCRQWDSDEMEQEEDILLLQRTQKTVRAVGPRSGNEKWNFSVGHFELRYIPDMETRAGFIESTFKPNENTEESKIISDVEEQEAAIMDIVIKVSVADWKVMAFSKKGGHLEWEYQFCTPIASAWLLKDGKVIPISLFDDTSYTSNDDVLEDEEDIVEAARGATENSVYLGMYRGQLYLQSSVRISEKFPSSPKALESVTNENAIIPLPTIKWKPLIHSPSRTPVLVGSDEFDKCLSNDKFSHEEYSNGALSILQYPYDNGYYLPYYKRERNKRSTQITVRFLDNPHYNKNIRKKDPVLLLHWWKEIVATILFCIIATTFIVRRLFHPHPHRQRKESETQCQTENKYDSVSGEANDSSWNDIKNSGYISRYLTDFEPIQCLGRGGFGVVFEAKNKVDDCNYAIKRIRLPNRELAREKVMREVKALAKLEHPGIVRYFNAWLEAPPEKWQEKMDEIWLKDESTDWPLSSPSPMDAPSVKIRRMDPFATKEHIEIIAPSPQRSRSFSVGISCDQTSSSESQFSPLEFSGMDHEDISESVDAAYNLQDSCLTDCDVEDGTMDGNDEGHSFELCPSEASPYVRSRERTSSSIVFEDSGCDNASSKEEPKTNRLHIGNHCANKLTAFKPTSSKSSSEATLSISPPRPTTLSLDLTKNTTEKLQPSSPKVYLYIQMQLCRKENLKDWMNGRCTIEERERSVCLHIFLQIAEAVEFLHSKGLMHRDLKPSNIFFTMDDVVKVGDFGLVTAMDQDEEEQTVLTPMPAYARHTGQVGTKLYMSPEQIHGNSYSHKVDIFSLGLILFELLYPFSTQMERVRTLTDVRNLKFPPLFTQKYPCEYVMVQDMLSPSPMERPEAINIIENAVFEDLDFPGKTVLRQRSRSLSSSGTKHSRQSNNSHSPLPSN
Kind of assay: Dose response cell-based high-throughput screening assay to measure PERK inhibition. [Related pubchem assays: 1416 ]. The assay is classed as functional.

Assay [4] has as its target T3, Eukaryotic translation initiation factor 2-alpha kinase 3. Kind of assay: Counterscreen assay for PERK inhibitors: Dose response cell-based high throughput screening assay to measure inhibition of PERK at 6 hours. [Related pubchem assays: 1522, 1416 ]. In kind it is functional.

Sequence of Acyl-homoserine lactone acylase PvdQ (Q9I194 24-193 limits assumed): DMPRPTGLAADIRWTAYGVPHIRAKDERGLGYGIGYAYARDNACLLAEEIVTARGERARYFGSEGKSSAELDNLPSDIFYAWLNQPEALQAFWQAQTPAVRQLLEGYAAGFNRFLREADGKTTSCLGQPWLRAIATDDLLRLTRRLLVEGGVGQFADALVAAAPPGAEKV
Sequence of Acyl-homoserine lactone acylase PvdQ (Q9I194 217-762 limits assumed): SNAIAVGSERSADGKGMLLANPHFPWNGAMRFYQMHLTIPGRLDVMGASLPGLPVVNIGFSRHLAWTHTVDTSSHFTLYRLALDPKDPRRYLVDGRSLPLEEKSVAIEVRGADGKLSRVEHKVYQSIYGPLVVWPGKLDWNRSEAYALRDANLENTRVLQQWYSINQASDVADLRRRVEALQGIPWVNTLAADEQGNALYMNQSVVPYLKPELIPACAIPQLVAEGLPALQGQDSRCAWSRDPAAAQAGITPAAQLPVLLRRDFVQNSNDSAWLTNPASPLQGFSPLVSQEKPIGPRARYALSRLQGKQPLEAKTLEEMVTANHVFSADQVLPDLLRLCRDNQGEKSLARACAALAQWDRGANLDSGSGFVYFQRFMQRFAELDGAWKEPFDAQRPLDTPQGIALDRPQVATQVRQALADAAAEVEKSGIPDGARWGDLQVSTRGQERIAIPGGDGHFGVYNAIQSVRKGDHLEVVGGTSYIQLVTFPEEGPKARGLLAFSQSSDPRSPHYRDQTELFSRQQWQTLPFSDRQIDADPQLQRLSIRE
Sequence of Aspartyl aminopeptidase (Q8I2J3 whole entry): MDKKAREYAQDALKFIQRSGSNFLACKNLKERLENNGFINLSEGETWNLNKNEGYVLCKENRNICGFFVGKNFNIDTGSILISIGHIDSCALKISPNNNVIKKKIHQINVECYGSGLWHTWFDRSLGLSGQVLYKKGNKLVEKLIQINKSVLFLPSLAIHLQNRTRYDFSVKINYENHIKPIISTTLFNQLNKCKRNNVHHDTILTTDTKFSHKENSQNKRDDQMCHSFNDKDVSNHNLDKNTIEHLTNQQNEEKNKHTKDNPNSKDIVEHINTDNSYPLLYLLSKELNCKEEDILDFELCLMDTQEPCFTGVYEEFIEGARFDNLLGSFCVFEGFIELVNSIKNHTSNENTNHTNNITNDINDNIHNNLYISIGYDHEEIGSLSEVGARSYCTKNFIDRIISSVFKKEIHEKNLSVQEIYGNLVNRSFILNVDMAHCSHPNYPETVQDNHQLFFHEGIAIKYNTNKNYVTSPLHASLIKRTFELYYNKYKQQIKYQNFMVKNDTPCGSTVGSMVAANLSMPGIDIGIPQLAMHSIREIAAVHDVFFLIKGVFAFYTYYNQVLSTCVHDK
Sequence of Procathepsin L (P07711 whole entry): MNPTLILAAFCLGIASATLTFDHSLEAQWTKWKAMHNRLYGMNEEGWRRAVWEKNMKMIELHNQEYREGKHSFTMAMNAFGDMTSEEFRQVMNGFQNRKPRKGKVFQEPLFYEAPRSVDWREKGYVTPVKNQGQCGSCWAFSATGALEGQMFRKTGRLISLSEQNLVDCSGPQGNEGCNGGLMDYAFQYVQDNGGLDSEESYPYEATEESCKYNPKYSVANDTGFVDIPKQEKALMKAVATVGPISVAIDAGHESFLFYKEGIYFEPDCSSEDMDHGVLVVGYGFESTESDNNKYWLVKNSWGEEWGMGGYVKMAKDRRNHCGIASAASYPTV

On to `CCCS(=O)(=O)N1CCC(C(=O)NCc2ccc3c(c2)OCO3)CC1`, for which the IC50 is > 73.5 µM (not active) against Aspartyl aminopeptidase, 13.1 µM (active) on Aminopeptidase N and > 59.6 µM (not active) at Procathepsin L.
`O=C(CSc1nc2c(c(=O)[nH]1)CN(Cc1ccc(F)cc1)CC2)Nc1ccc(F)cc1`: the IC50 on Leucine aminopeptidase is 7.8 µM (active); against Aspartyl aminopeptidase, > 73.5 µM (not active); against Procathepsin L, > 59.6 µM (not active).
Take `O=c1c2cc(Cl)ccc2[nH]c(=S)n1Cc1cccs1`: the CC50 in assay [1] is > 40 µM (active).
Regarding `CCOC(=O)c1cnc(-c2ccccc2)nc1N`, the AC50 in assay [2] is 11.6 µM (active).
Turning to `O=C1c2ccncc2C(=O)N1c1cccc(Cl)c1`, the EC50 in assay [3] and in assay [4] was > 55.7 µM (not active) in each case.
Consider `N#CCn1c(C2CCCCC2)nc2ccccc2c1=O`, for which the AC50 in assay [2] is 13.1 µM (active).

Source of the values: ChEMBL document CHEMBL1201862, “PubChem BioAssay data set” (2004).
